The numbers were not newly measured in patent US20070104788A1, “Once-daily administration of central nervous system drugs” (priority 2005, published 2007), which cites them from elsewhere.

Read-outs that look alike come from different tables or passages of the source.

For this series the following is noted: for half life: background statement.

As for `COc1cccc([C@@]2(O)CCCC[C@H]2CN(C)C)c1` (racemic) [tramadol], the half life was 6.3 h. The “Half-Life Elimination” value (metabolite of tramadol) is 7 h. Under “parent drug”, the “Half-Life Elimination” value was 5 to 6 h.
In the case of `Cc1cc(C)cc(OCC2CNC(=O)O2)c1` (stereo not shown) [metaxolone], the “Half-Life Elimination” value (after a meal) is 2.4 ± 1.2 (after a meal) hours and the “Half-Life Elimination” value (fasting) was 9.2 ± 4.8 (fasting) hours.
Turning to `COc1ccc2c3c1O[C@H]1C(=O)CC[C@@]4(O)[C@@H](C2)N(C)CC[C@]314` [oxycodone], for the setting “parent drug”, the “Half-Life Elimination” value was 0.4 h.
As to `CN(C)C[C@H]1CCCC[C@]1(O)c1cccc(O)c1` [Ml], the half life is 7.4 h.
